Experimental data: patent US20070258972A1, “Combination of a Histone Deacetylase Inhibitor with a Death Receptor Ligand” (priority 2003, published 2007)

Tests used:
[1] = test system: Apo-2L/TRAIL-induced DISC; test: Apo-2L/TRAIL-induced DISC analysis; assay type: cell-based, human; conditions: LAQ824 100 nM for 24 hours followed by Apo-2L/TRAIL (100 ng/mL for two hours) versus Apo-2L/TRAIL; not c-FLIPL
Method: Untreated or LAQ824 treated SKW 6.4 or Jurkat cells are suspended at a final concentration of 10^6 cells/mL in a pre-warmed, complete RPMI media. Cells are treated with 100 ng/mL Apo-2L/TRAIL for 2 hours at 37° C, followed by washing with 1 mL of ice-cold PBS. Cells are lysed in 500 μL lysis buffer (25 mM Tris-HCl, pH 7.2, 150 mM NaCl, 25 mM NaF, 1 mM benzamidine, 1.0% Triton X-100, 2 μg/mL aprotinin 2 μg/mL leupeptin, 1 μg/mL pepstin-A and 0.1 μg/mL PMSF) for 30 minutes on ice. In the untreated controls, 100 ng/mL Apo-2L/TRAIL was added after lysis of cells, to immunoprecipitate non-stimulated Apo-2L/TRAIL receptors. One-hundred micrograms (100 μg) of the lysates was incubated at 4° C. for 2 hours with 1 μg each of anti-Apo-2L/TRAIL receptor 1 & 2 (DR4 and DR5) antibodies, provided by Immunex Corp., Seattle Wash. The immune-complexes are incubated overnight at 4° C. with 20 μL of protein A-agarose beads (Roche, Indianapolis, Ind.). The beads are recovered by centrifugation and washed twice with the lysis buffer. The pellet was re-suspended in the sample buffer and analyzed by SDS-PAGE and immunoblot analysis using antibodies against caspase-8, DR5, DR4 and FADD.

c-FLIPL mRNA = test: RT-PCR assay for c-FLIP mRNA levels; assay type: cell-based; conditions: 8 hours
Method: Total RNA was isolated from cells utilizing a TRIZOL LS reagent (Invitrogen Carlsbad, Calif.). RT-PCR analysis was performed, as previously described. The RNA (1.0 μg) was reverse-transcribed into cDNA by using SuperScript II RT (Invitrogen Carlsbad, Calif.) according to the manufacturer's protocol. For the c-FLIP PCR, the primer sequences are as follows, forward primer: 5′-GCCCGAGCACCGAGACTACG-3′; and reverse primer: 5′-AGG GAC GGD GAG CTG TGA GAC TG-3′. β-actin forward primer: 5′-CTA CM TGA GCT GCG TGT GG-3′; and reverse primer: MG GM GGC TGG MG AGT GC. The PCR reaction containing 0.2 mM concentration of dATP, dCTP, dGTP, dTTP and 200 nM concentration of each c-FLIP primers and 50 nM of each β-actin primers, 1.5 mM of MgCl2, and 10×PCR buffer containing Tris-HCL (pH 8.0), 500 mM KCL and 1 U of Tag polymerase (Invitrogen Carlsbad, Calif.). The reaction is performed at 95° C. for 5 minutes, and is followed by 30 cycles of de-naturating at 95° C. for 45 seconds, annealing at 52° C. for 45 seconds and the extension at 72° C. for one minute. The PCR products are separated on a 2% agarose/eithidium bromide gel. The size of the amplified products was 395 bases pairs for the c-FLIP and 527 base pairs for β-actin product, respectively.

DR5 = DR5 cell-membrane expression by flow cytometry, Jurkat cells; assay type: cell-based, human
Jurkat and SKW 6.4 cells = test: Western analyses of proteins, Jurkat and SKW 6.4 cells; assay type: cell-based, human
Method: (§1) Western analyses of DR4, DR5, Apo-2L, FADD, Caspase-8, c-FLIPL & S, BID, Caspase-9, Caspase-3, PARP, XIAP, clAP1, survivin and β-actin are performed using specific anti-sera or monoclonal antibodies according to previously reported protocols. Horizontal scanning densitometry was performed on Western blots by using acquisition into Adobe Photo Shop (Apple, Inc., Cupertino, Calif.) and analysis by the NIH Image Program (U.S. National Institutes of Health, Bethesda, Md.). The expression of β-actin was used as a control.

primary AML blasts = test: Western analyses of proteins, primary AML blasts; assay type: cell-based, human
Method: as §1

SKW 6.4 and Jurkat cells = test: Flow cytometry analysis of cell cycle status; assay type: cell-based, human; conditions: 24 hours
Method: The flow cytometric evaluation of the cell cycle status is performed according to a previously described method. The percentage of cells in the G1, S-phase, and G2/M phases are calculated using Multicycle software (Phoenix Flow Systems, San Diego, Calif.).

[2] = test system: SKW 6.4 and Jurkat leukemia cells; test: Multi-probe RNase protection assay of mRNA levels; assay type: cell-based, human
Method: A RiboQuant Multi-Probe RNase Protection Assay System was used according to the manufacturer's instructions (BD/PharMingen, San Diego, Calif.). A probe set, hAPO-3d (FLICE, FAS, DR5, DR4 and TRAIL) was used for T7 RNA-polymerase directed synthesis of [α-32P] UTP-labeled antisense RNA probes. The probe set contains the DNA templates, including glyceraldehyde-3-phosphate dehydrogenase (GAPDH) used as internal control. The probes (1×10^6 cpm/reaction) are hybridized with 20 μg of RNA isolated from the SKW 6.4 and Jurkat leukemia cells, following treatment with 100 nM LAQ824 at different time points using the RNeasy Mini kit (Qiagen, Valencia, Calif.). After overnight hybridization, samples are digested with RNase to remove single-stranded (non-hybridized) RNA. The remaining probes are resolved on 5% de-naturing polyacrylamide gel and analyzed by autoradiography.

[3] = 8 hours or 16 hours, densitometry, GAPDH loading control

How did the “recruitment of FADD and caspase-8 into the immunoprecipitates of DR4 & DR5” value [1] turn out when `O=C(/C=C/c1ccc(CN(CCO)CCc2c[nH]c3ccccc23)cc1)NO` [LAQ824, N-hydroxy-3-[4-[[(2-hydroxyethyl)[2-(1H-indol-3-yl)ethyl]-amino]methyl]phenyl]-2E-2-propenamide] was run?
Its value is “more recruitment”.

What about the “inhibition of the mRNA level of c-FLIPL” value (c-FLIPL mRNA) of the same compound?
The value was 75%.

And the “cell-membrane expression of DR5” value (DR5)?
The value was “induces”.

And the “acetylation of histone H3 and histone H4” value (Jurkat and SKW 6.4 cells; 50 nM or 200 nM, 24 hours, Jurkat and SKW 6.4 cells)?
Its value is “increased”.

And the “intracellular levels of p27” value (Jurkat and SKW 6.4 cells; 50 nM, SKW 6.4 and Jurkat cells)?
Its value is “increase”.

And the p27 levels (Jurkat and SKW 6.4 cells; 200 nM, both cell-types)?
Its p27 levels is “attenuated”.

What about the “Apo-2L/TRAIL, DR4 and DR5 levels” value (Jurkat and SKW 6.4 cells; 24 hours, SKW 6.4 and Jurkat cells) of the same compound?
Its value is “induces”.

And the “levels of Bcl-xL, Bcl-2, XIAP, c-IAP and survivin” value (Jurkat and SKW 6.4 cells; SKW 6.4 and Jurkat cells)?
The value was “attenuates”.

What about the “levels of FLIPL and FLIPS” value (Jurkat and SKW 6.4 cells; SKW 6.4 and Jurkat cells) of the same compound?
The value was “attenuates”.

What about the “levels of p21” value (Jurkat and SKW 6.4 cells; SKW 6.4 cells) of the same compound?
Its value is “dose-dependent increase”.

What about the “DR4 and DR5 levels” value (primary AML blasts) of the same compound?
The value was “increases”.

What about the “levels of FLIPL and c-FLIPS” value (primary AML blasts) of the same compound?
The value was “down-regulates”.

And the “acetylation of histones H3 and H4” value (primary AML blasts; 100 nM or 250 nM, 24 hours)?
Its value is “induces”.

What about the “cells in the S phase of the cell cycle” value (SKW 6.4 and Jurkat cells) of the same compound?
Its value is “decline”.

What about the “percentage of cells in the G1 phase” value (SKW 6.4 and Jurkat cells) of the same compound?
Its value is “markedly increases”.

And the “mRNA levels of Apo-2L/TRAIL and caspase-8 (FLICE)” value [2]?
Its value is “only minimally affected”.

And the “mRNA expression of DR5, increase” value [2, 3]?
The value was 2.4 fold.

And the “mRNA expression of FAS, increase” value [2, 3]?
The value was 1.5 fold.

And the “DR4 mRNA levels, increase” value ([2]; only in SKW 6.4 cells)?
The value was 2.2 fold.
